From the supplement of paper PMC10307832

Assays:
Assay in all cases: relative viability (nuclei count vs DMSO), 5 days (fraction); higher = more cells survive
[1] = compound: CCOC1=CC=CC=C1N=NC2=C(NN(C2=O)C3=NC(=CS3)C4=CC=CC=C4)C [BAM7] + COc1cc2c(Oc3ccc(NC(=O)C4(C(=O)Nc5ccc(F)cc5)CC4)cc3F)ccnc2cc1OCCCN1CCOCC1 [Foretinib] (partner 0.25 µM)
Procedure, shortened: (§1)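 Values are medians from duplicate plates. Each reflects relative viability, defined as the nuclei count of treated wells over that of vehicle wells. Lung cancer cell lines in 1536-well plates were pin-tool dosed one day after seeding with one drug alone or with a fixed anchor-drug dose plus five library-drug doses (not always all listed) in √10 steps, then fixed, stained and imaged at 4× after 5 days.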

[2] = compound: CCOC1=CC=CC=C1N=NC2=C(NN(C2=O)C3=NC(=CS3)C4=CC=CC=C4)C [BAM7] + C[C@@H](Oc1cc(-c2cnn(C3CCNCC3)c2)cnc1N)c1c(Cl)ccc(F)c1Cl [Crizotinib] (partner 1 µM)
Procedure, shortened: as §1

[3] = compound: CCn1c(-c2nonc2N)nc2c(C#CC(C)(C)O)ncc(OC[C@H]3CCCNC3)c21 + CC(=O)Nc1cccc(-n2c(=O)n(C3CC3)c(=O)c3c(Nc4ccc(I)cc4F)n(C)c(=O)c(C)c32)c1 [Trametinib] (partner 0.02 µM)
Procedure, shortened: as §1

[4] = compound: CCn1c(-c2nonc2N)nc2c(C#CC(C)(C)O)ncc(OC[C@H]3CCCNC3)c21 + CS(=O)(=O)N1CCN(Cc2cc3nc(-c4cccc5[nH]ncc45)nc(N4CCOCC4)c3s2)CC1 [Pictilisib] (partner 1 µM)
Procedure, shortened: as §1

Row | Cell Line | relative viability ([1]; first compound 0.5 µM) | relative viability ([1]; first compound 5 µM) | relative viability ([1]; first compound 15.81 µM) | relative viability ([1]; first compound 50 µM) | relative viability ([2]; first compound 0.5 µM) | relative viability ([2]; first compound 5 µM) | relative viability ([2]; first compound 15.81 µM) | relative viability ([2]; first compound 50 µM) | relative viability ([3]; first compound 0.01 µM) | relative viability ([3]; first compound 0.03162 µM) | relative viability ([3]; first compound 0.1 µM) | relative viability ([3]; first compound 0.3162 µM) | relative viability ([3]; first compound 1 µM) | relative viability ([4]; first compound 0.01 µM) | relative viability ([4]; first compound 0.03162 µM) | relative viability ([4]; first compound 0.1 µM) | relative viability ([4]; first compound 0.3162 µM) | relative viability ([4]; first compound 1 µM)
1 | NCI-H460 | 0.926 | 0.982 | 0.878 | 0.969 | 1.16 | 1.13 | 0.743 | 0.96 | 0.171 | 0.121 | 0.145 | 0.0808 | 0.105 | 0.426 | 0.314 | 0.203 | 0.306 | 0.203
2 | EKVX | 0.792 | 0.79 | 0.541 | 0.987 | 1.15 | 0.963 | 0.54 | 0.711 | 0.394 | 0.385 | 0.347 | 0.377 | 0.34 | 0.466 | 0.468 | 0.425 | 0.411 | 0.463
3 | NCI-H358 | 0.834 | 0.84 | 0.642 | 0.634 | 0.76 | 0.589 | 0.522 | 0.52 | 0.145 | 0.133 | 0.132 | 0.115 | 0.104 | 0.332 | 0.364 | 0.364 | 0.318 | 0.32
4 | EPLC-272H | 0.653 | – | 0.632 | 0.811 | 0.928 | 0.986 | 1.02 | 0.982 | 0.324 | 0.284 | 0.252 | 0.217 | 0.315 | 0.287 | 0.282 | 0.286 | 0.301 | 0.314
5 | NCI-H2126 | 1.18 | 1.05 | 0.889 | 0.923 | 0.969 | 0.88 | 0.832 | 0.87 | 0.568 | 0.566 | 0.65 | 0.578 | 0.61 | 0.548 | 0.496 | 0.494 | 0.442 | 0.449
6 | LXF-289 | 1.04 | 0.968 | 0.986 | 0.961 | 0.924 | 0.876 | 0.773 | 0.787 | 0.686 | 0.66 | 0.703 | 0.609 | 0.668 | 0.765 | 0.798 | 0.715 | 0.723 | 0.793
7 | NCI-H2009 | 1.28 | 1.33 | 1.26 | 1.21 | 1.12 | 1.05 | 0.973 | 0.987 | 0.268 | 0.274 | 0.245 | 0.301 | 0.259 | 0.89 | 0.855 | 0.745 | 0.798 | 0.752
8 | NCI-H2405 | 1.04 | 1.12 | 1.02 | 1.04 | 0.896 | 0.965 | 0.796 | 0.805 | 0.664 | 0.683 | 0.646 | 0.598 | 0.604 | 0.407 | 0.492 | – | 0.445 | 0.406
9 | NCI-H1755 | 0.951 | 0.941 | 0.961 | 0.95 | 0.917 | 0.935 | 0.829 | 0.85 | 0.855 | 0.808 | 0.801 | 0.769 | 0.801 | 0.426 | 0.445 | 0.41 | 0.408 | 0.382
10 | HCC-78 | 0.566 | 0.516 | 0.564 | 0.58 | 0.339 | 0.334 | 0.324 | 0.308 | 0.639 | 0.709 | 0.703 | 0.69 | 0.652 | 0.191 | 0.217 | 0.194 | 0.187 | 0.177
11 | LOU-NH91 | 0.913 | 1.03 | 0.904 | 0.936 | 0.722 | 0.801 | 0.719 | 0.705 | 0.795 | 0.788 | 0.802 | 0.695 | 0.659 | 0.547 | 0.501 | 0.483 | 0.504 | 0.526
12 | NCI-H3122 | 0.838 | 0.856 | 0.916 | 0.866 | 0.282 | 0.378 | 0.33 | 0.312 | 0.242 | 0.224 | 0.236 | 0.192 | 0.242 | 0.606 | 0.612 | 0.634 | 0.598 | 0.55
13 | HCC-827 | 0.967 | 1.05 | 1.03 | 0.998 | 0.917 | 0.873 | 0.932 | 0.839 | 0.532 | 0.5 | 0.546 | 0.504 | 0.462 | 1.18 | 0.966 | 0.865 | 0.916 | 1.19
14 | SK-LU-1 | 0.875 | 0.925 | 0.72 | 0.857 | 0.785 | 1.05 | 0.903 | 0.866 | 0.527 | 0.495 | 0.458 | 0.443 | 0.441 | 0.64 | 0.715 | 0.498 | 0.575 | 0.617
15 | NCI-H1975 | 0.77 | 0.801 | 0.718 | 0.829 | 0.792 | 0.773 | – | 0.824 | 0.359 | 0.393 | 0.452 | 0.281 | 0.21 | 0.335 | 0.255 | 0.314 | 0.235 | 0.261
16 | NCI-H1651 | 0.893 | 0.837 | 0.686 | 0.829 | 0.826 | 0.889 | 0.871 | 0.886 | 0.83 | 0.82 | 0.811 | 0.783 | 0.841 | 0.551 | 0.564 | 0.607 | 0.523 | 0.639
17 | NCI-H441 | 1.09 | 1.13 | 0.767 | 1.14 | 0.776 | 0.656 | 0.706 | 0.717 | 0.435 | 0.39 | 0.452 | 0.397 | 0.378 | 0.472 | 0.494 | 0.522 | 0.486 | 0.466
18 | LCLC-103H | 0.693 | 0.741 | 0.739 | 0.777 | 1.08 | 1.03 | 1.01 | 0.804 | 0.615 | 0.686 | 0.66 | 0.642 | 0.675 | 0.591 | 0.59 | 0.527 | 0.622 | 0.625
19 | LCLC-97TM1 | 0.975 | 0.963 | 0.935 | 0.883 | 0.305 | 0.386 | 0.245 | 0.332 | 0.172 | 0.232 | 0.216 | 0.191 | 0.198 | – | 0.208 | 0.231 | 0.21 | 0.158
20 | NCI-H727 | 0.851 | 1.19 | 0.864 | 0.801 | 0.843 | 0.799 | 0.714 | 0.675 | 0.391 | 0.359 | 0.336 | 0.347 | 0.371 | 0.441 | 0.355 | 0.275 | 0.43 | 0.315
21 | NCI-H1355 | 0.936 | 0.907 | 0.795 | 0.791 | 0.968 | 1.05 | 0.937 | 0.987 | 0.464 | 0.415 | 0.463 | 0.386 | 0.382 | 0.534 | 0.361 | 0.384 | 0.392 | 0.472
22 | HOP-62 | 1.25 | 1.2 | 1.05 | 1.09 | 0.931 | 1.02 | 0.83 | 0.854 | 0.366 | 0.367 | 0.41 | 0.387 | 0.364 | 0.688 | 0.75 | 0.703 | 0.843 | 0.794
23 | NCI-H2085 | 0.973 | 1.18 | 0.743 | 1.19 | 0.829 | 0.956 | 0.75 | 0.859 | 0.452 | 0.539 | 0.439 | 0.427 | 0.59 | 0.436 | 0.437 | 0.373 | 0.404 | 0.462
